Results: patent US7705045B2, “Prodrugs built as multiple self-elimination-release spacers” (Syntarga, B.V., priority 2003, dated 2010)
≈ marks a conversion by molar mass, not a printed value. Entries after “also recorded” stand apart in the source; their conditions may differ. Blank lines part the entries; values can stand above or below the compound they belong to.

Assays:
[1] = Stability of reference compounds on treatment with zinc and acetic acid; format: physicochemical; settings: zinc powder, MeOH/THF/AcOH, Rt, 16 h
Description: (§1) Stability of 35. Treatment of 35 with Zinc (see FIG. 28). Dibenzyl carbonate 35 (13 mg) was dissolved in 2.5 mL MeOH/THF/AcOH (1.5/0.5/0.5). Zinc powder was added and the reaction mixture was stirred at Rt for 16 h. […] The mixture was filtered over hyflo and the residue was washed with MeOH/dichloromethane.
as §1, with “36.” for “35.”, “36” for “35”, “Paclitaxel-2′-carbonate 36 (3” for “Dibenzyl carbonate 35 (13”, “MeOH/dichloromethane. The filtrate was concentrated in vacuo.” for “MeOH/dichloromethane.”

[2] = system: seven well-characterised human tumor cell lines; assay: Cytotoxicity in a panel of seven human tumor cell lines; format: cell-based
Excerpt: Upon removal or transformation of the specifier V in the compounds or prodrugs disclosed in this invention, thus upon unmasking of B of the branched spacer or spacer system coupled to V, under physiological conditions, the reactive intemiediate(s) formed after self-elimination is (are) likely to be trapped by water, thereby regenerating molecules like aminodiol 23 and/or aminotriol 16. When a multiple release conjugate or prodrug constructed with one of the monomers disclosed in this invention is used for drug delivery purposes, the degradation products of the prodrug or (bio)conjugate after the multiple self-elimination cascade must be non-toxic (except from drugs to be released in tumor targeting approaches). Therefore, we have tested the aminotriol monomer 16 and aminodiol monomer 23 for their cytotoxicity in a panel of seven weul-characterized human tumor cell lines. Both compounds turned out to be non-toxic (see example 33).
Cytoxicity of multiple release spacers 16 and 23. The anti-proliferative effect of the monomeric spacers was determined in vitro applying seven well-characterised human tumor cell lines and the microculture sulphorhodamine B (SRB) test. […]

[3] = system: H226; non-small cell lung cancer; assay: SRB anti-proliferative test, H226; format: cell-based, human; settings: 5 days of incubation
Description: (§2) Cytoxicity of multiple release spacers 16 and 23. The anti-proliferative effect of the monomeric spacers was determined in vitro applying seven well-characterised human tumor cell lines and the microculture sulphorhodamine B (SRB) test. The anti-proliferative effects were determined and expressed as ID50 values (ng/mL), which are the (pro)drug concentrations that gave 50% inhibition of cell growth when compared to control cell growth after 5 days of incubation.

[4] = system: IGROV; ovarian cancer; assay: SRB anti-proliferative test, IGROV; format: cell-based, human; settings: 5 days of incubation
Description: as §2

[5] = system: A498; renal cancer; assay: SRB anti-proliferative test, A498; format: cell-based, human; settings: 5 days of incubation
Description: as §2

[6] = system: MCF-7; breast cancer; assay: SRB anti-proliferative test, MCF-7; format: cell-based, human; settings: 5 days of incubation
Description: as §2

[7] = system: M19; melanoma; assay: SRB anti-proliferative test, M19; format: cell-based, human; settings: 5 days of incubation
Description: as §2

[8] = system: EVSA-T; breast cancer; assay: SRB anti-proliferative test, EVSA-T; format: cell-based, human; settings: 5 days of incubation
Description: as §2

[9] = system: WIDR; colon cancer; assay: SRB anti-proliferative test, WIDR; format: cell-based, human; settings: 5 days of incubation
Description: as §2

[10] = Release of leaving groups upon reduction of the nitro group with zinc and acetic acid (TLC, 1H-NMR); format: physicochemical
Description: (§3) Proof of principle for triple elimination. Formation of benzyl alcohol upon reduction of 13 (see FIG. 19). Compound 13 was dissolved in 3 mL of MeOH/AcOH/THF (1.5/0.5/1). Zinc powder was added and the reaction mixture was stirred at Rt. […] The mixture was filtered over hyflo and the residue was washed with MeOH/dichloromethane.
as §3, with “phenethyl” for “benzyl”, “14” for “13”, “3.75” for “3”, “(2/0.75/1).” for “(1.5/0.5/1).”
Reduction of the nitro group in 15. Failure of elimination of benzylamine (see FIG. 20). Compound 15 (16 mg) was dissolved in 10 mL of MeOH/AcOH (8/2). Zinc powder was added and the reaction mixture was stirred at Rt. […] The mixture was filtered over hyflo and the residue was washed with MeOH/dichloromethane. The filtrate was concentrated in vacuo, the mixture was freeze-dried. Under a number of varied circumstances (different deuterated solvent combinations, different pH (acidic, neutral, and basic), different buffers), ^1H-NMR did hardly show formation of free benzylamine. After 2 days, maximally 33 percent of free benzylamine was observed (^1H-NMR).
Proof of principle for double elimination. Formation of paclitaxel upon reduction of 22 (see FIG. 22). Nitrocinnamyl biscarbonate 22 was dissolved in 3.5 mL of MeOH/AcOH/THF (2/0.5/1). Zinc powder was added and the reaction mixture was stirred at Rt. […] The mixture was filtered over hyflo and the residue was washed with MeOH/dichloromethane. The filtrate was concentrated in vacuo, dioxane was added and the resulting solution was freeze-dried.
Proof of principle for quadruple elimination. Formation of paclitaxel upon reduction of 26 (see FIG. 23). Compound 26 was dissolved in 3.25 mL MeOH/AcOH/TF (1.5/0.75/1). Zinc powder was added and the reaction mixture was stirred. […] After 16 h, the mixture was filtered over hyflo and the residue was washed with MeOH/dichloromethane. […]

[11] = zinc powder, MeOH/AcOH(/THF), Rt

Compound: O=C(OCc1ccccc1)OCc1ccccc1 [Compound 35, Dibenzyl carbonate]
stability on treatment with zinc and acetic acid (TLC, 1H-NMR) [1]: did not show any degradation; also recorded: no formation of new compounds

Compound: Nc1ccc(C=C(CO)CO)cc1 [Compound 23]
cytotoxicity [2]: non-toxic
ID50 [3]: 0.042406 µg/mL (≈ 0.237 µM)
ID50 [4]: > 0.0625 µg/mL
ID50 [5]: 0.056784 µg/mL (≈ 0.317 µM)
ID50 [6]: > 0.0625 µg/mL
ID50 [7]: > 0.0625 µg/mL
ID50 [8]: > 0.0625 µg/mL
ID50 [9]: > 0.0625 µg/mL

Compound: 2′-O-cinnamyloxycarbonylpaclitaxel [Compound 36]
stability on treatment with zinc and acetic acid (TLC, 1H-NMR) [1]: did not show any degradation; also recorded: no formation of new compounds

release of leaving groups by 1H-NMR ([10]; after reduction with zinc/acetic acid): complete release of free benzylamine
Compound: O=C(NCc1ccccc1)OCc1ccc([N+](=O)[O-])cc1 [Compound 34]
formation of free leaving group by thin layer chromatography [10, 11]: formation of a substantial amount of benzylamine
time to disappearance of starting compound (thin layer chromatography) [10, 11]: 100 min
